The target in assay [1] is Factor XIa (Homo sapiens (Human), UniProt P03951). Put plainly: Factor XIa inhibition assay (FLINT) utilizing a fluorophore-quencher pair peptide substrate. It is filed as biochemical. To be noted: 30 min preincubation, kinetic reads over 30 min, read-out: FXIa Kin Inh IC50. In a few lines:
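FXIa ([…]) preincubated 30 min with compound (11-point 3-fold dilution, top 100 nM, 2% DMSO), then 15 μM quenched FXI Arg146-based peptide added; Tris pH 7.5, CaCl2, BSA, CHAPS. Fluorescence 485/520 nm read kinetically every 5 min over 30 min at RT; IC50 by 4-parameter fit.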

The target of assay [2] is human plasma kallikrein (Homo sapiens (Human), UniProt P03952). Put plainly: Kallikrein inhibition assay (FLINT) utilizing a quenched AMC peptide substrate. The class given is biochemical. As to conditions: 30 min preincubation, kinetic reads over 30 min, Z-Gly-Pro-Arg-AMC substrate 50 μM; read-out: Kallikrein Kin Inh IC50. In a few lines:
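Enzyme (2 nM final) pre-incubated 30 min at room temperature with compound (11-point, 3-fold, top 1 μM, 2% DMSO), then 50 μM Z-Gly-Pro-Arg-AMC added in Tris pH 7.5 buffer. Kinetic fluorescence 340/440 nm every 5 min over 30 min; IC50 from 4-parameter logistic fit.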

Setting [3] is: 5Fam-[…]-K5Tamra substrate 15 μM.
[4] abbreviates: 5Fam-KLTRAETV-K5Tamra substrate 15 μM.

For orientation: IC50 means the concentration needed to halve the response being measured.

Structures are written as SMILES. Like-named read-outs stand apart in the source and are kept apart here.

Sequence of human plasma kallikrein (P03952 391-638): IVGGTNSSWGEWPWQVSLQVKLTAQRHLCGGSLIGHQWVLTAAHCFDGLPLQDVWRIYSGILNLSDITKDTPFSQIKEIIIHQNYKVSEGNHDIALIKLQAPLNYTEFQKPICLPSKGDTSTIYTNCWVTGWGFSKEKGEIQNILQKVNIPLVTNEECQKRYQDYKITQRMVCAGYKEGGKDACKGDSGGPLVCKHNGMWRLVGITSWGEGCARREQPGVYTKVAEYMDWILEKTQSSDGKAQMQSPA
Sequence of human plasma kallikrein (P03952 20-390 partner): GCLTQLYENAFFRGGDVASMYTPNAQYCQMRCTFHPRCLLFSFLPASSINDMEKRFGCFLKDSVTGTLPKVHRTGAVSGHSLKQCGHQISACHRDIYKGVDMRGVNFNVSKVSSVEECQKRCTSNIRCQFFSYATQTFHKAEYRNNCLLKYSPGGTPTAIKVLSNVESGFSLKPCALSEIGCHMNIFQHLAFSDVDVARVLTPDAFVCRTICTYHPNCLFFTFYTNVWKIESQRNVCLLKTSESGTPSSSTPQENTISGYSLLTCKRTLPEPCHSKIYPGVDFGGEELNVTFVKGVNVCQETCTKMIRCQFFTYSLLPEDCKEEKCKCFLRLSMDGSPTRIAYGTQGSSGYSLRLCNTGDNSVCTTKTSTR
Sequence of Factor XIa (P03951 388-625): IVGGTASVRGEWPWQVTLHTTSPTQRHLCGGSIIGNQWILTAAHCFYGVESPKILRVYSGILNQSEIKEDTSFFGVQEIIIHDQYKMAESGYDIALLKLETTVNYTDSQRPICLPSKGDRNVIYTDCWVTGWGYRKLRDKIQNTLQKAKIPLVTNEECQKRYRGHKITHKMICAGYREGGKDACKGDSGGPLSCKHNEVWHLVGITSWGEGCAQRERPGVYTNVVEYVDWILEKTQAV
Sequence of Factor XIa (P03951 19-387 partner): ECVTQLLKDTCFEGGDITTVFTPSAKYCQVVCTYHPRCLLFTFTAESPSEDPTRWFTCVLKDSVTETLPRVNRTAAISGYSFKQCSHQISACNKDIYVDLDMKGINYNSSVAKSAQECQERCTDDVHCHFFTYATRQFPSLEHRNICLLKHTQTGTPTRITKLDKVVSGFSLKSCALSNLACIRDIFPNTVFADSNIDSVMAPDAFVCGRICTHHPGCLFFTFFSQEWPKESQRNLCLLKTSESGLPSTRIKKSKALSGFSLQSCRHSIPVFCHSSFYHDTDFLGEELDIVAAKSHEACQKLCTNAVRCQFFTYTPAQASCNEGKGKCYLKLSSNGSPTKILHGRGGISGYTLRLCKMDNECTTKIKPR

Take `O=C1C=C(c2c(-n3cnnn3)ccc(Cl)c2F)C[C@H]2CC[C@@H](c3ncc(-c4ccnc(N5CC6(COC6)C5)c4F)[nH]3)N12` (single isomer, unassigned) [Example 108, (3S*,8aR)-7-(3-chloro-2-fluoro-6-(1H-tetrazol-1-yl)phenyl)-3-(5-(3-fluoro-2-(2-oxa-6-azaspiro[3.3]heptan-6-yl)pyridin-4-yl)-1H-imidazol-2-yl)-2,3,8,8a-tetrahydroindolizin-5(1H)-one]: the IC50 in assay [1] (setting [3]) turned out to be 2.9 nM; in assay [2] it was 5.7 nM.
With `O=C1C=C(c2c(-n3cnnn3)ccc(Cl)c2F)C[C@H]2CC[C@H](c3nc(F)c(-c4ccnc(C5(O)CC5)c4F)[nH]3)N12` (single isomer, unassigned) [Example 109], the concentration for half-maximal inhibition (IC50) was determined as 4.8 nM in assay [1] (setting [4]) and 35.8 nM in assay [2].
For `O=C1C=C(c2c(-n3cnnn3)ccc(Cl)c2F)C[C@H]2CC[C@H](c3ncc(-c4ccnc(N5CCC5)c4F)[nH]3)N12` (single isomer, unassigned) [Example 110, (3*R,8aR)-3-(5-(2-(azetidin-1-yl)-3-fluoropyridin-4-yl)-1H-imidazol-2-yl)-7-(3-chloro-2-fluoro-6-(1H-tetrazol-1-yl)phenyl)-2,3,8,8a-tetrahydroindolizin-5(1H)-one], the IC50 worked out at 11 nM in assay [1] (setting [3]) and 6.9 nM in assay [2].
As to `O=C1C=C(c2c(-n3cnnn3)ccc(Cl)c2F)C[C@H]2CC[C@@H](c3ncc(-c4ccnc(N5CCC5)c4F)[nH]3)N12` (single isomer, unassigned) [Example 111, (3*S,8aR)-3-(5-(2-(azetidin-1-yl)-3-fluoropyridin-4-yl)-1H-imidazol-2-yl)-7-(3-chloro-2-fluoro-6-(1H-tetrazol-1-yl)phenyl)-2,3,8,8a-tetrahydroindolizin-5(1H)-one], the IC50 came to 2.9 nM in assay [1] (setting [4]) and 3.8 nM in assay [2].
As to `O=C1C=C(c2c(-n3cnnn3)ccc(Cl)c2F)C[C@H]2CC[C@H](c3ncc(-c4ccnc(-n5cncn5)c4F)[nH]3)N12` (single isomer, unassigned) [Example 112, (3*R,8aR)-7-(3-chloro-2-fluoro-6-(1H-tetrazol-1-yl)phenyl)-3-(5-(3-fluoro-2-(1H-1,2,4-triazol-1-yl)pyridin-4-yl)-1H-imidazol-2-yl)-2,3,8,8a-tetrahydroindolizin-5(1H)-one], the concentration for half-maximal inhibition (IC50) in assay [1] (setting [4]) is 9.6 nM; in assay [2], 20.6 nM.
With `O=C1C=C(c2c(-n3cnnn3)ccc(Cl)c2F)C[C@H]2CC[C@@H](c3nc(-c4ccnc(-c5ccn[nH]5)c4F)c[nH]3)N12` (single isomer, unassigned) [Example 115, (3S,8a*R)-7-(3-chloro-2-fluoro-6-(1H-tetrazol-1-yl)phenyl)-3-(4-(3-fluoro-2-(1H-pyrazol-5-yl)pyridin-4-yl)-1H-imidazol-2-yl)-2,3,8,8a-tetrahydroindolizin-5(1H)-one], the values for the IC50 in assay [1] (setting [4]) and in assay [2] were 1.5 nM and 1.9 nM, respectively.
For `O=C1C=C(c2c(-n3cnnn3)ccc(Cl)c2F)C[C@H]2CC[C@H](c3ncc(-c4ccnc(C5(O)CC5)c4F)[nH]3)N12` (single isomer, unassigned) [Example 116, (3*R,8aR)-7-(3-chloro-2-fluoro-6-(1H-tetrazol-1-yl)phenyl)-3-(5-(3-fluoro-2-(1-hydroxycyclopropyl)pyridin-4-yl)-1H-imidazol-2-yl-4-d)-2,3,8,8a-tetrahydroindolizin-5(1H)-one], the IC50 in assay [1] (setting [4]) came out at 8.3 nM; in assay [2] it was 64.4 nM.
In the case of `O=C1Nc2ccc(-c3cnc([C@@H]4CC[C@@H]5CC(c6c(-n7cnnn7)ccc(Cl)c6F)=CC(=O)N54)[nH]3)c(F)c2CO1` (single isomer, unassigned) [Example 118, 6-(24(3*S,8a*R)-7-(3-chloro-2-fluoro-6-(1H-tetrazol-1-yl)phenyl)-5-oxo-1,2,3,5,8,8a-hexahydroindolizin-3-yl)-1H-imidazol-5-yl)-5-fluoro-1,4-dihydro-2H-benzo[d][1,3]oxazin-2-one], the IC50 in assay [1] (setting [4]) is 0.4 nM; in assay [2] it was 1.7 nM.
In the same order, the values of `Nc1ccc(-c2cnc([C@H]3CC[C@@H]4CC(c5cc(Cl)ccc5-n5cnnn5)=CC(=O)N43)[nH]2)c(F)n1` (single isomer, unassigned) [Example 119, (3*R,8aR)-3-(5-(6-amino-2-fluoropyridin-3-yl-5-d)-1H-imidazol-2-yl)-7-(5-chloro-2-(1H-tetrazol-1-yl)phenyl-3-d)-2,3,8,8a-tetrahydroindolizin-5(1H)-one] are 0.6 nM and 11.7 nM.
Take `Nc1ccc(-c2cnc([C@@H]3CC[C@@H]4CC(c5cc(Cl)ccc5-n5cnnn5)=CC(=O)N43)[nH]2)c(F)n1` (single isomer, unassigned) [Example 120, (3*S,8aR)-3-(5-(6-amino-2-fluoropyridin-3-yl-5-d)-1H-imidazol-2-yl)-7-(5-chloro-2-(1H-tetrazol-1-yl)phenyl-3-d)-2,3,8,8a-tetrahydroindolizin-5(1H)-one]: the half-maximal inhibitory concentration (IC50) was 4.5 nM in assay [1] (setting [4]) and 67.7 nM in assay [2].
On to `[2H]c1cc(Cl)cc(C2=CC(=O)N3[C@H](CC[C@@H]3c3ncc(-c4ccc(N)nc4F)[nH]3)C2)c1-n1cnnn1` (single isomer, unassigned) [Example 121], for which the IC50 stood at 0.7 nM in assay [1] (setting [3]) and 16.9 nM in assay [2].
In the case of `Nc1ccc(-c2cnc([C@@H]3CC[C@@H]4CC(c5cc(Cl)ccc5-n5cnnn5)=CC(=O)N43)[nH]2)c(F)n1` (single isomer, unassigned) [Example 122, (3*S,8aR)-3-(5-(6-amino-2-fluoropyridin-3-yl)-1H-imidazol-2-yl)-7-(5-chloro-2-(1H-tetrazol-1-yl)phenyl-3-d)-2,3,8,8a-tetrahydroindolizin-5(1H)-one], the concentration for half-maximal inhibition (IC50) in assay [1] (setting [4]) is 4 nM; in assay [2] it was 53.1 nM.
As for `[2H]c1nc([C@H]2CC[C@]3([2H])CC(c4c(-n5cnnn5)ccc(Cl)c4F)=CC(=O)N23)[nH]c1-c1c(F)nc(N)c([2H])c1[2H]` (single isomer, unassigned) [Example 131, (3R*,8aR*)-3-(5-(6-amino-2-fluoropyridin-3-yl-4,5-d2)-1H-imidazol-2-yl-4-d)-7-(3-chloro-2-fluoro-6-(1H-tetrazol-1-yl)phenyl)-2,3,8,8a-tetrahydroindolizin-5(1H)-one-8a-d], the IC50 in assay [1] (setting [3]) was found to be 0.9 nM; in assay [2], 11.7 nM.
In the same order, the values of `[2H]c1nc([C@@H]2CC[C@]3([2H])CC(c4c(-n5cnnn5)ccc(Cl)c4F)=CC(=O)N23)[nH]c1-c1c(F)nc(N)c([2H])c1[2H]` (single isomer, unassigned) [Example 132, (3S *,8aR*)-3-(5-(6-amino-2-fluoropyridin-3-yl-4,5-d2)-1H-imidazol-2-yl-4-d)-7-(3-chloro-2-fluoro-6-(1H-tetrazol-1-yl)phenyl)-2,3,8,8a-tetrahydroindolizin-5(1H)-one-8a-d] are 0.4 nM and 6.8 nM.
With `CCN(CCO)c1nccc(-c2cnc([C@@H]3CC[C@H]4CC(c5c(-n6cnnn6)ccc(Cl)c5F)=CC(=O)N43)[nH]2)c1F` (single isomer, unassigned) [Example 135, (3S,8a*S)-7-(3-chloro-2-fluoro-6-(1H-tetrazol-1-yl)phenyl)-3-(5-(2-(ethyl(2-hydroxyethyl)amino)-3-fluoropyridin-4-yl)-1H-imidazol-2-yl)-2,3,8,8a-tetrahydroindolizin-5(1H)-one], the IC50 in assay [1] (setting [4]) amounted to 22.5 nM; in assay [2], 15.5 nM.
On to `CCN(CCO)c1nccc(-c2cnc([C@@H]3CC[C@@H]4CC(c5c(-n6cnnn6)ccc(Cl)c5F)=CC(=O)N43)[nH]2)c1F` (single isomer, unassigned) [Example 136, (3S,8a*R)-7-(3-chloro-2-fluoro-6-(1H-tetrazol-1-yl)phenyl)-3-(5-(2-(ethyl(2-hydroxyethyl)amino)-3-fluoropyridin-4-yl)-1H-imidazol-2-yl)-2,3,8,8a-tetrahydroindolizin-5(1H)-one], for which the IC50 in assay [1] (setting [4]) is 4.8 nM; in assay [2], 6.3 nM.
Take `N#CC1(c2nccc(-c3cnc([C@@H]4CC[C@@H]5CC(c6c(-n7cnnn7)ccc(Cl)c6F)=CC(=O)N54)[nH]3)c2F)COC1` (single isomer, unassigned) [Example 138, 3-(4-(2-((3S,8aR*)-7-(3-chloro-2-fluoro-6-(1H-tetrazol-1-yl)phenyl)-5-oxo-1,2,3,5,8,8a-hexahydroindolizin-3-yl)-1H-imidazol-5-yl)-3-fluoropyridin-2-yl)oxetane-3-carbonitrile]: the IC50 was determined as 32 nM in assay [1] (setting [4]) and 138 nM in assay [2].
Take `N#CC1(c2nccc(-c3cnc([C@@H]4CC[C@@H]5CC(c6c(-n7cnnn7)ccc(Cl)c6F)=CC(=O)N54)[nH]3)c2F)CC1` (single isomer, unassigned) [Example 139, 1-(4-(2-((3S,8a*R)-7-(3-chloro-2-fluoro-6-(1H-tetrazol-1-yl)phenyl)-5-oxo-1,2,3,5,8,8a-hexahydroindolizin-3-yl)-1H-imidazol-5-yl)-3-fluoropyridin-2-yl)cyclopropane-1-carbonitrile]: the IC50 in assay [1] (setting [4]) was determined as 29.1 nM; in assay [2], 22 nM.
In the case of `O=C1C=C(c2c(-n3cc(C(F)(F)F)nn3)ccc(Cl)c2F)C[C@@H]2CC[C@H](c3ncc(-c4c[nH]c5ncccc45)[nH]3)N12` (single isomer, unassigned) [Example 140, (3*R,8aS)-3-(5-(1H-pyrrolo[2,3-b]pyridin-3-yl)-1H-imidazol-2-yl)-7-(3-chloro-2-fluoro-6-(4-(trifluoromethyl)-1H-1,2,3-triazol-1-yl)phenyl)-2,3,8,8a-tetrahydroindolizin-5(1H)-one], the concentration for half-maximal inhibition (IC50) in assay [1] (setting [4]) is 2.9 nM; in assay [2], 6.2 nM.

Source of the values: patent US20230295157A1, “3-(1H-IMIDAZOL-2-YL)-2,3,8,8A-TETRAHYDROINDOLIZIN-5(1H)-ONE DERIVATIVES USEFUL AS FACTOR XIA INHIBITORS” (JANSSEN PHARMACEUTICA NV, priority 2020, published 2023).
